Laboratory results as given in patent publication US20240158446A1, “CYCLIC COMPOUND HAVING SELECTIVE INHIBITORY ACTION ON KRAS OVER HRAS AND NRAS” (CHUGAI SEIYAKU KABUSHIKI KAISHA, priority 2021, published 2024).
*1 amine or outer side, *2 acyl side, *3 side chain or, on linkers, in order; H or OH if unused. Where a SMILES comes first, the peptide text is derived from it. Bridges are numbered along the chain shown (N, C = ends). [ ]: non-standard residue; d: D form. The star is where a group is joined. hPhe(3-Cl-4-CF3) = N[C@@H](CCc1ccc(C(F)(F)F)c(Cl)c1)C(=O)O; NPrPhe(4-CF3) = CCCN[C@@H](Cc1ccc(C(F)(F)F)cc1)C(=O)O; X6 = CCCN([C@@H](COCCC(C)C)C(=O)[*:2])[*:1]; NMeGly(cPent) = CN[C@H](C(=O)O)C1CCCC1; NEtLeu = CCN[C@@H](CC(C)C)C(=O)O; NMeD = CN[C@@H](CC(=O)O)C(=O)O; NMeL = CN[C@@H](CC(C)C)C(=O)O; NMeNva = CCC[C@H](NC)C(=O)O; Morpholide = C1CN(*)CCO1; Ac4c = NC1(C(=O)O)CCC1; NPrGly = CCCNCC(=O)O; Sar = CNCC(=O)O

Columns and labels:
[1] = target: GDP-bound KRAS wild-type protein (Homo sapiens, UniProt P01116); assay: Binding to KRAS by surface plasmon resonance (SPR), Single Cycle Kinetics; conditions: SPR, Single Cycle Kinetics, GDP-bound KRAS wild-type protein; read-out: KRAS KD
GDP-bound KRAS wild-type protein, sequence (P01116 whole entry): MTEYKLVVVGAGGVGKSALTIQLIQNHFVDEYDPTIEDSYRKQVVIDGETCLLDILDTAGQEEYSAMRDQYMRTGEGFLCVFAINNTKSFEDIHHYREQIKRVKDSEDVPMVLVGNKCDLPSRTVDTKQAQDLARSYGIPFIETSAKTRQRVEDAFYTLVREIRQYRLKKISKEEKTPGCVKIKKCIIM

[2] = target: GDP-bound HRAS wild-type protein (Homo sapiens, UniProt P01112); assay: Binding to HRAS by surface plasmon resonance (SPR), Single Cycle Kinetics; conditions: ratio of KD for GDP-bound HRAS wild-type protein to KD for KRAS, SPR
GDP-bound HRAS wild-type protein, sequence (P01112 whole entry): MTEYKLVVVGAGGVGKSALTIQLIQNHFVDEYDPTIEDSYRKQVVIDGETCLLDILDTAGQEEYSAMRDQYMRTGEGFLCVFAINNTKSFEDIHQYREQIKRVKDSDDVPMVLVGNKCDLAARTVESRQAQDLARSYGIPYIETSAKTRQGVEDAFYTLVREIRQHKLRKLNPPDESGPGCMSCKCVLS

[3] = target: GDP-bound NRAS wild-type protein (Homo sapiens, UniProt P01111); assay: Binding to NRAS by surface plasmon resonance (SPR), Single Cycle Kinetics; conditions: ratio of KD for GDP-bound NRAS wild-type protein to KD for KRAS, SPR
GDP-bound NRAS wild-type protein, sequence (P01111 whole entry): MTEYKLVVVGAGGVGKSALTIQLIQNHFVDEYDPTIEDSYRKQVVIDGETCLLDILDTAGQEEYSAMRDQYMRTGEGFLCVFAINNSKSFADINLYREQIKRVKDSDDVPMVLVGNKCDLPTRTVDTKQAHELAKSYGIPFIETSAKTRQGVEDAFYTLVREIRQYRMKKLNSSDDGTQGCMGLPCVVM

[4] = tested on: human lung cancer strain NCI-H441; assay: cells; conditions: NCI-H441, 96 h, read-out: NCI-H441 IC50 (nM), NCI-H441 cell proliferation, 4 days, CellTiter-Glo;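 further: cell proliferation inhibition after four days measured by CellTiter-Glo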

Kd [1] [nM] | IC50 [4] [nM] | Compound | HRAS/KRAS (KD ratio) [2] | NRAS/KRAS (KD ratio) [3]
0.12 | 3.8 | CC[C@H](C)[C@@H]1NC(=O)[C@H](CC(F)F)N(C)C(=O)C[C@@H](C(=O)N(C)C)N(C)C(=O)[C@H](C2CCCC2)N(C)C(=O)C2(CC(C)(C)C2)NC(=O)[C@@H]2C[C@H](C)CN2C(=O)[C@H](CCc2cc(F)c(C(F)(F)F)c(F)c2)NC(=O)CN(C)C(=O)[C@H](Cc2ccc(C(F)(F)F)cc2)N2CC/C=C\C[C@@H](C2=O)N(C)C(=O)CN(C)C1=O [PP1658] | A (a compound having 10 or more and less than 20 is denoted as A) | A (a compound having 10 or more and less than 20 is denoted as A)
0.37 | 22 | CCC[C@H]1C(=O)N[C@@H]([C@@H](C)CC)C(=O)N(CCC)CC(=O)N(C)CC(=O)N(CCC)[C@@H](Cc2ccc(C(F)(F)F)cc2)C(=O)N(C)CC(=O)N[C@@H](CCc2ccc(C(F)(F)F)c(Cl)c2)C(=O)N2CCC[C@H]2C(=O)NC2(CCC2)C(=O)N(C)[C@@H](C2CCCC2)C(=O)N(C)[C@H](C(=O)N2CCOCC2)CC(=O)N1C [PP1947] ([NMeNva]I[NPrGly][Sar][NPrPhe(4-CF3)][Sar][hPhe(3-Cl-4-CF3)]P[Ac4c][NMeGly(cPent)][NMeD]-Morpholide; lactam N-11) | B (a compound having 3 or more and less than 10 is denoted as B) | B (a compound having 3 or more and less than 10 is denoted as B)
0.065 | 8.2 | CC[C@H](C)[C@@H]1NC(=O)[C@H](CC)N(C)C(=O)C[C@@H](C(=O)N(C)C)N(C)C(=O)[C@H](C2CCCC2)N(C)C(=O)C2(CCC2)N(C)C(=O)[C@@H]2CCCN2C(=O)[C@H](CCc2cc(F)c(C(F)(F)F)c(F)c2)NC(=O)CN(C)C(=O)[C@H](Cc2ccc(C(F)(F)F)cc2)N2CC/C=C\C[C@@H](C2=O)N(C)C(=O)CN(C)C1=O [PP1780] | A (a compound having 10 or more and less than 20 is denoted as A) | A (a compound having 10 or more and less than 20 is denoted as A)
0.15 | 20.2 | CCO[C@@H]1C[C@H]2C(=O)NC3(CC(C)(C)C3)C(=O)N(C)[C@@H](C3CCCC3)C(=O)N(C)[C@H](C(=O)N(C)CC)CC(=O)N(C)[C@@H](C(C)C)C(=O)N[C@@H]([C@@H](C)CC)C(=O)N(C)CC(=O)N(C)[C@H]3C/C=C\CCN(C3=O)[C@@H](Cc3ccc(C(F)(F)F)cc3)C(=O)N(C)CC(=O)N[C@@H](CCc3ccc(C(F)(F)F)c(OC)c3)C(=O)N2C1 [PP1977] | A (a compound having 10 or more and less than 20 is denoted as A) | AA (a compound having 20 or more is denoted as AA)
0.047 | 2.2 | CCO[C@@H]1C[C@H]2C(=O)NC3(CC(C)(C)C3)C(=O)N(C)[C@@H](C3CCCC3)C(=O)N(C)[C@H](C(=O)N(C)C)CC(=O)N(C)[C@@H](CC(C)C)C(=O)N[C@@H]([C@@H](C)CC)C(=O)N(C)CC(=O)N(C)[C@H]3C/C=C\CCN(C3=O)[C@@H](Cc3ccc(C(F)(F)F)cc3)C(=O)N(C)CC(=O)N[C@@H](CCc3ccc(C(F)(F)F)c(Cl)c3)C(=O)N2C1 [PP1751] | A (a compound having 10 or more and less than 20 is denoted as A) | A (a compound having 10 or more and less than 20 is denoted as A)
0.47 | 20.4 | CCCN1C(=O)CN(C)C(=O)CN(C)C(=O)[C@H]([C@@H](C)CC)NC(=O)[C@H](CC(C)C)N(C)C(=O)C[C@@H](C(=O)N2CCOCC2)N(C)C(=O)[C@H](C2CCCC2)N(C)C(=O)C2(CCC2)NC(=O)[C@@H]2CCCN2C(=O)[C@H](CCc2ccc(C(F)(F)F)c(Cl)c2)NC(=O)CN(C)C(=O)[C@@H]1COCCC(C)C [PP1817] ([NMeL]I[Sar][Sar][X6][Sar][hPhe(3-Cl-4-CF3)]P[Ac4c][NMeGly(cPent)][NMeD]-Morpholide; lactam N-11) | C (A compound having a KD ratio of 0.1 or more and less than 3 is denoted as C) | C (A compound having a KD ratio of 0.1 or more and less than 3 is denoted as C)
0.089 | 22.6 | CCOC[C@H]1C(=O)N[C@@H]([C@@H](C)CC)C(=O)N(C)CC(=O)N(C)[C@H]2C/C=C\CCN(C2=O)[C@@H](Cc2ccc(C(F)(F)F)cc2)C(=O)N(C)CC(=O)N[C@@H](CCc2ccc(C(F)(F)F)c(OC)c2)C(=O)N2C[C@@H](C)C[C@H]2C(=O)NC2(CCC2)C(=O)N(C)[C@@H](C2CCCC2)C(=O)N(C)[C@H](C(=O)N(C)CC)CC(=O)N1C [PP2026] | A (a compound having 10 or more and less than 20 is denoted as A) | A (a compound having 10 or more and less than 20 is denoted as A)
0.19 | 12.4 | CC[C@H](C)[C@@H]1NC(=O)[C@H](CC)N(C)C(=O)C[C@@H](C(=O)N(C)CC)N(C)C(=O)[C@H](C2CCCC2)N(C)C(=O)C2(CC(C)(C)C2)NC(=O)[C@@H]2C[C@@H](C)CN2C(=O)[C@H](CCc2ccc(C(F)(F)F)c(OC)c2)NC(=O)CN(C)C(=O)[C@H](Cc2ccc(C)cc2)N2CC/C=C\C[C@@H](C2=O)N(C)C(=O)CN(C)C1=O [PP1870] | A (a compound having 10 or more and less than 20 is denoted as A) | A (a compound having 10 or more and less than 20 is denoted as A)
0.099 | 8.7 | CCCOC[C@H]1C(=O)N[C@@H]([C@@H](C)CC)C(=O)N(C)CC(=O)N(C)[C@H]2C/C=C\CCN(C2=O)[C@@H](Cc2ccc(C(F)(F)F)cc2)C(=O)N(C)CC(=O)N[C@@H](CCc2ccc(C(F)(F)F)c(OC)c2)C(=O)N2C[C@H](OCC)C[C@H]2C(=O)NC2(CC(C)(C)C2)C(=O)N(C)[C@@H](C2CCCC2)C(=O)N(C)[C@H](C(=O)N(C)CC)CC(=O)N1C [PP1973] | B (a compound having 3 or more and less than 10 is denoted as B) | A (a compound having 10 or more and less than 20 is denoted as A)
0.26 | 8.4 | CCO[C@@H]1C[C@H]2C(=O)NC3(CC(C)(C)C3)C(=O)N(C)[C@@H](C3CCCC3)C(=O)N(C)[C@H](C(=O)N(C)C)CC(=O)N(C)[C@@H](CC3CCC3)C(=O)N[C@@H]([C@@H](C)CC)C(=O)N(C)CC(=O)N(C)[C@H]3C/C=C\CCN(C3=O)[C@@H](Cc3ccc(C(F)(F)F)cc3)C(=O)N(C)CC(=O)N[C@@H](CCc3cc(F)c(Cl)c(F)c3)C(=O)N2C1 [PP1762] | A (a compound having 10 or more and less than 20 is denoted as A) | A (a compound having 10 or more and less than 20 is denoted as A)
0.13 | 5.3 | CCCOC[C@H]1C(=O)N[C@@H]([C@@H](C)CC)C(=O)N(C)CC(=O)N(C)[C@H]2C/C=C\CCN(C2=O)[C@@H](Cc2ccc(C(F)(F)F)cc2)C(=O)N(C)CC(=O)N[C@@H](CCc2cc(F)c(C(F)(F)F)c(F)c2)C(=O)N2C[C@H](OCC)C[C@H]2C(=O)NC2(CCC2)C(=O)N(C)[C@@H](C2CCCC2)C(=O)N(C)[C@H](C(=O)N(C)CCC)CC(=O)N1C [PP1668] | A (a compound having 10 or more and less than 20 is denoted as A) | A (a compound having 10 or more and less than 20 is denoted as A)
0.72 | 68.5 | CCC[C@H]1C(=O)N[C@@H]([C@@H](C)CC)C(=O)N(C)CC(=O)N(C)[C@H]2C/C=C\CCN(C2=O)[C@@H](Cc2ccc(C(F)(F)F)cc2)C(=O)N(C)CC(=O)N[C@@H](CCc2cc(F)c(C(F)(F)F)c(F)c2)C(=O)N(C)[C@@H](C)C(=O)NC2(CC(C)(C)C2)C(=O)N(C)[C@@H](C2CCCC2)C(=O)N(C)[C@H](C(=O)N(C)C)CC(=O)N1C [PP1934] | A (a compound having 10 or more and less than 20 is denoted as A) | A (a compound having 10 or more and less than 20 is denoted as A)
0.13 | 7.2 | C#CC[C@H]1C(=O)N[C@@H]([C@@H](C)CC)C(=O)N(C)CC(=O)N(C)[C@H]2C/C=C\CCN(C2=O)[C@@H](Cc2ccc(C(F)(F)F)cc2)C(=O)N(C)CC(=O)N[C@@H](CCc2cc(F)c(C(F)(F)F)c(F)c2)C(=O)N2C[C@H](OCC)C[C@H]2C(=O)NC2(CCC2)C(=O)N(C)[C@@H](C2CCCC2)C(=O)N(C)[C@H](C(=O)N(C)CCC)CC(=O)N1C [PP1703] | A (a compound having 10 or more and less than 20 is denoted as A) | A (a compound having 10 or more and less than 20 is denoted as A)
0.15 | 10.8 | CC[C@H](C)[C@@H]1NC(=O)[C@H](CC(C)C)N(C)C(=O)C[C@@H](C(=O)N(C)CC)N(C)C(=O)[C@H](C2CCCC2)N(C)C(=O)C2(CC(C)(C)C2)NC(=O)[C@@H]2C[C@H](C)CN2C(=O)[C@H](CCc2ccc(C(F)(F)F)c(OC)c2)NC(=O)CN(C)C(=O)[C@H](Cc2ccc(C)cc2)N2CC/C=C\C[C@@H](C2=O)N(C)C(=O)CN(C)C1=O [PP1906] | A (a compound having 10 or more and less than 20 is denoted as A) | A (a compound having 10 or more and less than 20 is denoted as A)
0.16 | 15.2 | CCCN1C(=O)CN(C)C(=O)CN(C)C(=O)[C@H]([C@@H](C)CC)NC(=O)[C@H](CC(C)C)N(CC)C(=O)C[C@@H](C(=O)N2CCOCC2)N(C)C(=O)[C@H](C2CCCC2)N(C)C(=O)C2(CCC2)NC(=O)[C@@H]2CCCN2C(=O)[C@H](CCc2ccc(C(F)(F)F)c(Cl)c2)NC(=O)CN(C)C(=O)[C@@H]1Cc1ccc(C(F)(F)F)cc1 [PP1946] ([NEtLeu]I[Sar][Sar][NPrPhe(4-CF3)][Sar][hPhe(3-Cl-4-CF3)]P[Ac4c][NMeGly(cPent)][NMeD]-Morpholide; lactam N-11) | C (A compound having a KD ratio of 0.1 or more and less than 3 is denoted as C) | B (a compound having 3 or more and less than 10 is denoted as B)
